These results are taken from ChEMBL document CHEMBL1150113, “Ulongamides A-F, new beta-amino acid-containing cyclodepsipeptides from Palauan collections of the marine cyanobacterium Lyngbya sp” (J Nat Prod, 2002).

Broadly, the IC50 is the concentration needed to halve the response being measured.

Common to all, as to type: functional, cell-based
Assay [1] has as its system KB. Briefly: Cytotoxicity against human KB cells.
Assay [2] concerns LoVo. The assay can be described thus: Cytotoxicity against human LoVo cells.
The subject of assay [3] is LoVo. The assay can be described thus: Cytotoxicity against human LoVo cells at < 10 uM.
Assay [4] has as its system KB. The assay can be described thus: Cytotoxicity against human KB cells at < 10 uM.

Structures are written as SMILES. Active and inactive are the calls of the source. The rule behind the calls is not given here.

Consider `CCC[C@H]1NC(=O)c2csc(n2)[C@H](C)NC(=O)[C@H](C(C)C)N(C)C(=O)[C@H](Cc2ccc(O)cc2)N(C)C(=O)[C@H]([C@H](C)CC)OC(=O)[C@H]1C` [ULONGAMIDE E], for which the half-inhibitory concentration (IC50) in the assay with KB [1] was found to be 1 µM; in the assay with LoVo [2] it was 5 µM.

In the case of `CCC[C@H]1NC(=O)c2csc(n2)[C@H](C)NC(=O)[C@H](Cc2ccccc2)N(C)C(=O)[C@H](Cc2ccc(O)cc2)N(C)C(=O)[C@H](C)OC(=O)[C@@H]1C` [ULONGAMIDE C], the IC50 in the assay on KB [1] came out at 1 µM; in the assay on LoVo [2], 5 µM.

Consider `CCC[C@H]1NC(=O)c2csc(n2)[C@H](C)NC(=O)[C@H](C(C)C)N(C)C(=O)[C@H](Cc2ccc(O)cc2)N(C)C(=O)[C@H](C(C)C)OC(=O)[C@H]1C` [ULONGAMIDE D], for which the IC50 in the assay on KB [1] came to 1 µM; with LoVo [2], 5 µM.

Take `CCC[C@H]1NC(=O)c2csc(n2)[C@H](C)NC(=O)[C@H](C(C)C)N(C)C(=O)[C@H](Cc2ccc(O)cc2)N(C)C(=O)[C@H](C)OC(=O)[C@@H]1C` [ULONGAMIDE B]: the IC50 was determined as 1 µM in the assay with KB [1] and 5 µM with LoVo [2].

In the case of `CCC[C@H]1NC(=O)c2csc(n2)[C@H](C)NC(=O)[C@H](C(C)C)N(C)C(=O)[C@H](Cc2ccccc2)N(C)C(=O)[C@H](C)OC(=O)[C@@H]1C` [ULONGAMIDE A], the results for the IC50 in the assay on KB [1] and with LoVo [2] were 1 µM and 5 µM, respectively.

Consider `CCC[C@H]1NC(=O)c2csc(n2)[C@H](C)NC(=O)[C@H](C(C)C)N(C)C(=O)[C@H](C(C)C)NC(=O)[C@H]([C@@H](C)CC)OC(=O)[C@H]1C`, for which the result in the assay on LoVo [3] and in the assay with KB [4] was inactive.
